# Experimental data from PMC11596155, “When Chirality Makes the Difference: The Case of Novel Enantiopure N-Heterocyclic Carbene–Gold and –Silver Complexes” (Molecules, 2024).
# Legend:
# [1] = tested on: Escherichia coli (ATCC 25922); experiment: MIC and MBC by broth dilution, E. coli; format: cell-based; details: broth dilution, overnight 37 °C
# From the text: (§1) The bacterial strains used for MIC and MBC value determinations expressed as µg/mL by the broth dilution method, according to CLSI guidelines, were the following: Gram-negative: Escherichia coli (ATCC® 25922TM); Gram-positive: Staphylococcus aureus (ATCC® 23235TM). The MIC represents the lowest concentration of compound able to inhibit the visible microbial growth, expressed in μg/mL, whereas the MBC is the lowest concentration of a given compound that can completely kill the bacteria. Bacteria were grown overnight in LB medium (2%), diluted at a density of […] colony forming units (CFUs/mL), plated in the 96-well microplates to obtain a total inoculum load of ca. 10^5 cells/well and then treated with increasing concentrations of the tested complexes (1, 5, 10, 20, 50, 100, 200 μg/mL). Successively, after incubation at 37 °C overnight, the bacterial growth was monitored at a wavelength of 600 nm using a Multiskan spectrophotometer (Multiskan Ex Microplate model; Thermo Scientific, Nyon, Switzerland). MIC or MBC values were obtained by comparing cell density with a positive control (bacterial cells grown in LB medium were added with only the vehicle, DMSO). The results were representative of three independent experiments performed in triplicate and ampicillin (Sigma Aldrich A9393) was used as the control for strain sensitivity.
# MCF-10A cells = experiment: MTT assay, cytotoxicity on normal mammary epithelial cells MCF-10A; format: cell-based, human; details: 72 h
# Procedure: (§2) All cell lines used for the reported studies were purchased from the American Type Culture Collection (ATCC, Manassas, VA, USA). Human breast cancer cells MCF-7 and MDA-MB-231 were maintained in Dulbecco’s Modified Eagle Medium/Nutrient Mixture F12 Ham (DMEM/F12) supplemented with 5% fetal bovine serum (FBS), 1% L-glutamine and 100 units/mL of penicillin/streptomycin. Human mammary epithelial cells MCF-10A were cultured in DMEM/F12 medium, supplemented with 5% horse serum (HS), 100 units/mL of penicillin/streptomycin, […], 0.02 µg/mL human epidermal growth factor (EGF), 10 µg/mL insulin and […] [34]. The murine macrophages RAW 264.7 were grown in Dulbecco’s Modified Eagle’s Medium (DMEM) high glucose (4.5 g/L), added with 10% fetal bovine serum (FBS), 1% L-glutamine and 100 units/mL of penicillin/streptomycin. Cells were maintained at 37 °C, in a humidified atmosphere containing 5% CO2.
# (§3) Cell viability was determined using the 3-(4,5-dimethylthiazol-2-y1)-2,5-diphenyltetrazolium bromide assay (MTT, Sigma-Aldrich, Milan, Italy), as in [35]. Cells were treated for 72 h (anticancer activity) or 24 h (anti-inflammatory activity) at different concentrations and the IC50 values were obtained using GraphPad Prism 9 software (GraphPad Software, La Jolla, CA, USA).
# MDA-MB-231 cells = experiment: MTT assay, anticancer activity, MDA-MB-231; format: cell-based, human; details: 72 h, mean ± SD of three experiments
# Procedure: as §2, §3
# [2] = tested on: NO production in LPS-stimulated RAW 264.7 macrophages (iNOS); experiment: Griess assay, NO production in LPS-stimulated RAW 264.7 macrophages; format: cell-based, murine; details: 24 h, LPS 1 µg/mL, RAW 264.7, vs LPS only
# From the text: Inflammation is an important process, in which the immune system is activated, allowing the protection from infections by eliminating pathogens and promoting repairing phenomena. However, in some cases, the inflammation can become chronic, playing a key role in several diseases, such as cancer, diabetes, autoimmune and neurodegenerative disorders. Moreover, chronic inflammation is characterized by a proliferation of different specialized cells, for instance macrophages, fibroblasts, granulocytes and so on. […] NO is produced by nitric oxide synthases (NOS) isoforms, but under different pro-inflammatory stimuli (cytokines or microbial products) it is massively produced by the inducible NOS (iNOS, NOS2; or type II NOS). iNOS can be also overexpressed in several diseases, producing NO in an unregulated manner and contributing to the disease progression. For these reasons, its inhibition represents a good strategy for the treatment of various diseases related to chronic inflammation, amongst them cancer. The anti-inflammatory activity, in terms of NO production inhibition, of the new synthesized chiral complexes was evaluated by the means of a Griess-based assay. Particularly, the NO production was induced in murine macrophages RAW 264.7 stimulated with bacterial lipopolysaccharide (LPS), then they were exposed to the complexes for 24 h and the released NO was quantified (as detailed in the Section 3). […] Therefore, pro-ligands P1 and P2, as R and S pure enantiomers, were tested. The obtained outcomes are visible in Figure 2 (panels A and B, P1 and P2 series, respectively), where it is possible to notice “at glance” that most of the enantiopure compounds were unable to decrease the NO synthesis, induced by LPS treatment in RAW 264.7 macrophages (see pink bars in the graph), with the exception of (R)-AuL1 and (R)-AuL2. Particularly, (R)-AuL1 was able to decrease, dose-dependently, the NO production of about 23 and 35% at 5 and 10 µM, respectively, whereas the S enantiomer was unable to reduce NO, under the same experimental conditions. […] Furthermore, none of the pro-ligands was found able to decrease NO production. […] Finally, viability assays were performed on RAW 264.7 macrophages, recovered after the Griess test.
# Anti-inflammatory activity was tested adopting the Griess assay on RAW 264.7 murine macrophages, by measuring NO production, as reported by. Specifically, RAW 264.7 cells were plated on 48 multi-wells and treated with the tested molecules at the indicated concentrations; lipopolysaccharide (LPS, Sigma Aldrich, Milan, Italy), at a final concentration of 1 µg/mL, was used to induce inflammation and stimulate NO production. After 24 h, the cell medium and Griess reagent were mixed at a 1:1 ratio and left under agitation for 30 min, at room temperature. Then, absorbance was measured at 540 nm, using a multiplate reader. The absorbance obtained allowed to assess the percentage of NO production compared with the positive control, in which the cells have been treated with LPS.
# Figure 2 Panel (A), L1 series and panel (B), L2 series. Anti-inflammatory activity (pink bars): NO production was induced in murine macrophages RAW 264.7 treated with LPS (1 µg/mL), in presence or not of the enantiopure complexes and pro-ligands at the indicated concentrations (µM), for 24 h. Indomethacin (Ind) was used as the reference molecule. Data were plotted as % NO inhibition with respect to LPS-only treatment. […]
# [3] = tested on: Staphylococcus aureus (ATCC 23235); experiment: MIC and MBC by broth dilution, S. aureus; format: cell-based; details: broth dilution, overnight 37 °C
# From the text: as §1
# MCF-7 cells = experiment: MTT assay, anticancer activity, MCF-7; format: cell-based, human; details: 72 h, mean ± SD of three experiments
# Procedure: as §2, §3
smiles,measurement,setting,value
"CN1C(Cl)=C(Cl)N(C[C@H](O)c2ccccc2)[CH]1[Au-][Cl] (stereo partly drawn) [(R)-AuL2, (4,5-dichloro-1-((R)-2-hydroxy-2-phenylethyl)-3-methyl-2,3-dihydro-1H-imidazol-2-yl)gold(I) chloride]",M.B.C. E. coli,[1],> 150 µg/mL
same,M.I.C. E. coli,[1],75 µg/mL
same,cytotoxicity toward normal MCF-10A cells (in words),MCF-10A cells,did not impact
same,IC50,"MCF-10A cells; normal cells, mean ± SD of three experiments",38000 ± 2200 nM
same,IC50,MDA-MB-231 cells,1200 ± 200 nM
same,decrease of NO production,[2]; 1 µM,about 10%
same,decrease of NO production,[2]; 5 µM,~50%
same,M.B.C. S. aureus,[3],> 100 µg/mL
same,M.I.C. S. aureus,[3],75 µg/mL
same,IC50,MCF-7 cells,2200 ± 200 nM
